Target: T1, KRas G12C (Homo sapiens, UniProt P01116, G12C)
T1 construct: NCI-H358 cells (ATCC CRL-5807) express KRas G12C
Experiment: Inhibition of KRas G12C-dependent cell growth: Phospho-ERK in NCI-H358 cells
Assay type: cell-based
Conditions: NCI-H358 cells expressing KRas G12C; Phospho-ERK (Thr202/Tyr204) normalized to GAPDH; 3 hours compound; 4 parameter fit
Method in brief: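 Phospho-ERK read-out in KRas G12C-expressing NCI-H358 cells after 3 h compound treatment (final DMSO 0.5%), by in-cell infrared immunodetection. Signal normalized to GAPDH and to DMSO controls. 4-parameter curve fit gave IC50.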

T1 sequence (P01116 1-188 isoform P01116-2 G12C): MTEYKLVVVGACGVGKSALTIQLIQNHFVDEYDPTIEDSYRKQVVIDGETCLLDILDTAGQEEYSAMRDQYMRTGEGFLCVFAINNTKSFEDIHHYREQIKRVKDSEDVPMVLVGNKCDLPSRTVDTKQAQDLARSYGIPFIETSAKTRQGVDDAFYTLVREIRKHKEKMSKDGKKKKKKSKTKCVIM

Compound: C=C(F)C(=O)N1CCN(c2nc(OC[C@@H]3CCCN3C)nc3c(C)c(-c4cccc5cccc(C)c45)ncc23)C[C@@H]1CC#N [Example 33, 2-[(2S)-1-(2-fluoroprop-2-enoyl)-4-[8-methyl-7-(8-methyl-1-naphthyl)-2-[[(2S)-1-methylpyrrolidin-2-yl]methoxy]pyrido[4,3-d]pyrimidin-4-yl]piperazin-2-yl]acetonitrile]
- IC50: 79 nM

Compound: C=C(F)C(=O)N1CCN(c2nc(OC[C@@H]3[C@H]4C[C@H]4CN3C)nc3c(F)c(-c4cccc5ccc(F)c(Cl)c45)ncc23)C[C@@H]1CC#N [Example 191]
- IC50: 15 nM

Compound: C=C(F)C(=O)N1CCN(c2nc(OCCC(F)(F)F)nc3c(F)c(-c4cccc5ccc(F)c(Cl)c45)ncc23)C[C@@H]1CC#N [Example 104]
- IC50: 699 nM

Compound: C=CC(=O)N1CC2CC1CN2c1nc(OC[C@@H]2CCCN2C)nc2c(F)c(-c3cncc4cccc(Cl)c34)ncc12 (some centres unmarked) [Example 98]
- IC50: 10000 nM

Compound: C=C(F)C(=O)N1CCN(c2nc(OC[C@@H]3C[C@@H](OC)CN3C)nc3c(F)c(-c4cncc5cccc(C)c45)ncc23)C[C@@H]1CC#N [Example 34, 2-[(2S)-4-[8-fluoro-2-[[(2S,4R)-4-methoxy-1-methyl-pyrrolidin-2-yl]methoxy]-7-(5-methyl-4-isoquinolyl)pyrido[4,3-d]pyrimidin-4-yl]-1-(2-fluoroprop-2-enoyl)piperazin-2-yl]acetonitrile]
- IC50: 45 nM

Compound: C=C(F)C(=O)N1CCN(c2nc(OC[C@@H]3CCCN3C3CCC3)nc3c(F)c(-c4cccc5ccc(F)c(Cl)c45)ncc23)C[C@@H]1CC#N [Example 140]
- IC50: 14 nM

Compound: C#Cc1cccc2cccc(-c3ncc4c(N5C[C@@H]6[C@H]5CCN6C(=O)C=C)ncnc4c3F)c12 [Example 247, 1-((1R,5R)-6-(7-(8-ethynylnaphthalen-1-yl)-8-fluoropyrido[4,3-d]pyrimidin-4-yl)-2,6-diazabicyclo[3.2.0]heptan-2-yl)prop-2-en-1-one]
- IC50: 105 nM

Compound: C=CC(=O)N1CC[C@@H]2[C@H]1CN2c1ncnc2cc(-c3cccc4ccc(F)c(Cl)c34)ncc12 [Example 254]
- IC50: 2160 nM

Compound: C=CC(=O)N1CC[C@@H]2[C@H]1CN2c1nc(OC)nc2c(F)c(-c3cccc4ccc(F)c(Cl)c34)ncc12 [Example 267]
- IC50: 330 nM

Compound: C=CC(=O)N1CCN(c2ncnc3c(F)c(-c4c[n+]([O-])cc5ccccc45)ncc23)CC1 [Example 301, 4-(4-(4-acryloylpiperazin-1-yl)-8-fluoropyrido[4,3-d]pyrimidin-7-yl)isoquinoline 2-oxide]
- IC50: 10000 nM

Compound: C=C(F)C(=O)N1CCN(c2nc(OC[C@@H]3CCCN3C)nc3c(O)c(-c4cccc5cccc(C)c45)ncc23)C[C@@H]1CC#N [Example 211, 2-((S)-1-(2-fluoroacryloyl)-4-(8-hydroxy-7-(8-methylnaphthalen-1-yl)-2-(((S)-1-methylpyrrolidin-2-yl)methoxy)pyrido[4,3-d]pyrimidin-4-yl)piperazin-2-yl)acetonitrile]
- IC50: 2 nM

Compound: CO[C@@H]1C[C@@H](COc2nc(N3CCN(C(=O)/C=C/CF)[C@@H](CC#N)C3)c3cnc(-c4cccc5cccc(C)c45)c(F)c3n2)N(C)C1 [Example 26, 2-[(2S)-1-[(E)-4-fluorobut-2-enoyl]-4-[8-fluoro-2-[[(2S,4R)-4-methoxy-1-methyl-pyrrolidin-2-yl]methoxy]-7-(8-methyl-1-naphthyl)pyrido[4,3-d]pyrimidin-4-yl]piperazin-2-yl]acetonitrile]
- IC50: 55 nM

Compound: C=C(F)C(=O)N1CCN(c2nc(OC[C@@H]3CCCN3CC)nc3c(F)c(-c4cccc5ccc(F)c(Cl)c45)ncc23)C[C@@H]1CC#N [Example 128]
- IC50: 15 nM

Compound: C=C(F)C(=O)N1CCN(c2nc(OCC3(C)CCN3C)nc3c(F)c(-c4cccc5ccc(F)c(Cl)c45)ncc23)C[C@@H]1CC#N (some centres unmarked) [Example 161]
- IC50: 11 nM

Compound: C#Cc1c(F)ccc2cccc(-c3ncc4c(N5C[C@@H]6[C@H]5CCN6C(=O)C(=C)F)ncnc4c3F)c12 [Example 299, 1-((1R,5R)-6-(7-(8-ethynyl-7-fluoronaphthalen-1-yl)-8-fluoropyrido[4,3-d]pyrimidin-4-yl)-2,6-diazabicyclo[3.2.0]heptan-2-yl)-2-fluoroprop-2-en-1-one]
- IC50: 1330 nM

Compound: Cc1cccc2cccc(-c3ncc4c(N5CCN(C(=O)/C=C/CF)[C@@H](CC#N)C5)nc(OC[C@@H]5C[C@@H](F)CN5C)nc4c3F)c12 [Example 17, 2-[(2S)-1-[(E)-4-fluorobut-2-enoyl]-4-[8-fluoro-2-[[(2S,4R)-4-fluoro-1-methyl-pyrrolidin-2-yl]methoxy]-7-(8-methyl-1-naphthyl)pyrido[4,3-d]pyrimidin-4-yl]piperazin-2-yl]acetonitrile]
- IC50: 59 nM

Compound: C=CC(=O)N1CCN(c2ncnc3c(F)c(-c4cc(O)cc5ccccc45)ncc23)CC1 [Example 218, 1-(4-(8-fluoro-7-(3-hydroxynaphthalen-1-yl)pyrido[4,3-d]pyrimidin-4-yl)piperazin-1-yl)prop-2-en-1-one]
- IC50: 711 nM

Compound: C=C(F)C(=O)N1CCN(c2nc(OCC3CCN3C(C)C)nc3c(F)c(-c4cccc5ccc(F)c(Cl)c45)ncc23)C[C@@H]1CC#N (some centres unmarked) [Example 130]
- IC50: 26 nM

Compound: C=CC(=O)N1CC[C@@H]2[C@H]1CN2c1ncnc2c(F)c(-c3cccc4cccc(C)c34)ncc12 [Example 283]
- IC50: 2430 nM

Compound: C=C(F)C(=O)N1CCN(c2nc(OC[C@@H]3C[C@@H](OC)CN3C(C)C)nc3c(F)c(-c4cccc5ccc(F)c(Cl)c45)ncc23)C[C@@H]1CC#N [Example 117]
- IC50: 18 nM

Compound: CN1C[C@H](F)C[C@H]1COc1nc(N2CCN(C(=O)/C=C/CF)[C@@H](CC#N)C2)c2cnc(-c3cncc4cccc(Cl)c34)c(F)c2n1 [Example 53, 2-[(2S)-4-[7-(5-chloro-4-isoquinolyl)-8-fluoro-2-[[(2S,4R)-4-fluoro-1-methyl-pyrrolidin-2-yl]methoxy]pyrido[4,3-d]pyrimidin-4-yl]-1-[(E)-4-fluorobut-2-enoyl]piperazin-2-yl]acetonitrile]
- IC50: 17 nM

Compound: C=C(F)C(=O)N1CCN(c2nc(N3CC(N(C)C)C3)nc3c(F)c(-c4cccc5ccc(F)c(Cl)c45)ncc23)C[C@@H]1CC#N [Example 170]
- IC50: 19 nM

Compound: C=CC(=O)N1CCN(c2ncnc3c(F)c(-c4ccccc4F)ncc23)[C@@H](C)C1 [Example 186]
- IC50: 10000 nM

Compound: C=CC(=O)N1CCN(c2ncnc3c(F)c(-c4c(O)ccc5ccccc45)ncc23)CC1 [Example 225]
- IC50: 4930 nM

Compound: COC/C=C/C(=O)N1CC[C@@H]2[C@H]1CN2c1ncnc2c(F)c(-c3cccc4ccc(F)c(Cl)c34)ncc12 [Example 259]
- IC50: 9000 nM

Compound: C#Cc1cccc2cccc(-c3ncc4c(N5CCN(C(=O)C=C)CC5)ncnc4c3F)c12 [Example 214, 1-(4-(7-(8-ethynylnaphthalen-1-yl)-8-fluoropyrido[4,3-d]pyrimidin-4-yl)piperazin-1-yl)prop-2-en-1-one]
- IC50: 2110 nM

Compound: C=CC(=O)N1CC[C@@H]2[C@H]1CN2c1nc(OC[C@@H]2C[C@@H](F)CN2C)nc2c(F)c(-c3cccc4ccc(F)c(Cl)c34)ncc12 [Example 264]
- IC50: 20 nM

Compound: C=CC(=O)N1CCN(c2nc(OC[C@@H]3CCCN3C)nc3c(F)c(-c4cccc5cccc(Cl)c45)ncc23)C[C@@H]1CC#N [Example 19, 2-((S)-1-acryloyl-4-(7-(8-chloronaphthalen-1-yl)-8-fluoro-2-(((S)-1-methylpyrrolidin-2-yl)methoxy)pyrido[4,3-d]pyrimidin-4-yl)piperazin-2-yl)acetonitrile]
- IC50: 2 nM

Compound: C=C(F)C(=O)N1CCN(c2ncnc3c(F)c(-c4cccc5cccc(C)c45)ncc23)C[C@@H]1CC#N [Example 111]
- IC50: 3920 nM

Compound: COC/C=C/C(=O)N1CCN(c2nc(OC[C@@H]3C[C@@H](OC)CN3C)nc3c(F)c(-c4cccc5cccc(C)c45)ncc23)C[C@@H]1CC#N [Example 57, 2-[(2S)-4-[8-fluoro-2-[[(2S,4R)-4-methoxy-1-methyl-pyrrolidin-2-yl]methoxy]-7-(8-methyl-1-naphthyl)pyrido[4,3-d]pyrimidin-4-yl]-1-[(E)-4-methoxybut-2-enoyl]piperazin-2-yl]acetonitrile]
- IC50: 58 nM

Compound: C=C(F)C(=O)N1CCN(c2nc(OCC3CCO3)nc3c(F)c(-c4cccc5ccc(F)c(Cl)c45)ncc23)C[C@@H]1CC#N (some centres unmarked) [Example 156]
- IC50: 134 nM

Compound: C=CC(=O)N1[C@@H](C)CN(c2ncnc3c(F)c(-c4cccc5ccc(F)c(Cl)c45)ncc23)C[C@@H]1C [Example 146]
- IC50: 10000 nM

Compound: C=C(F)C(=O)N1CCN(c2nc(OC[C@@H]3CC(F)(F)CN3C)nc3c(F)c(-c4cncc5cccc(Cl)c45)ncc23)C[C@@H]1CC#N [Example 46, 2-((S)-4-(7-(5-chloroisoquinolin-4-yl)-2-(((S)-4,4-difluoro-1-methylpyrrolidin-2-yl)methoxy)-8-fluoropyrido[4,3-d]pyrimidin-4-yl)-1-(2-fluoroacryloyl)piperazin-2-yl)acetonitrile]
- IC50: 94 nM

Compound: C=C(F)C(=O)N1CCN(c2nc(OCCCN3C[C@@H]4C[C@H]3CO4)nc3c(F)c(-c4cncc5cccc(C)c45)ncc23)C[C@@H]1CC#N [Example 38, 2-[(2S)-4-[8-fluoro-7-(5-methyl-4-isoquinolyl)-2-[3-[(1S,4S)-2-oxa-5-azabicyclo[2.2.1]heptan-5-yl]propoxy]pyrido[4,3-d]pyrimidin-4-yl]-1-(2-fluoroprop-2-enoyl)piperazin-2-yl]acetonitrile]
- IC50: 338 nM

Compound: N#CC[C@H]1CN(c2ncnc3c(F)c(-c4cccc5ccc(F)c(Cl)c45)ncc23)CCN1C(=O)/C=C/CF [Example 112]
- IC50: 218 nM

Compound: C=C(F)C(=O)N1CCN(c2nc(OCCN(C)C)nc3c(F)c(-c4cccc5cccc(Cl)c45)ncc23)C[C@@H]1CC#N [Example 68]
- IC50: 86 nM

Compound: C=CC(=O)N1CCN(c2nc(OC[C@@H]3CCCN3C)nc3c(F)c(-c4cncc5cccc(Cl)c45)ncc23)CC1 [Example 93]
- IC50: 366 nM

Compound: C=C(F)C(=O)N1CCN(c2nc(OC[C@@]34CCCN3C[C@H](F)C4)nc3c(F)c(-c4cccc5ccc(F)c(Cl)c45)ncc23)C[C@@H]1CC#N [Example 229]
- IC50: 1 nM

From US11548888B2, “KRas G12C inhibitors” (Mirati Therapeutics, Inc., priority 2019, dated 2023)
